The values below are quoted from earlier work in patent publication US7368458B2, “Bicyclic heterocycles as cannabinoid receptor modulators” (Bristol-Myers Squibb Company, priority 2005, dated 2008).

Where two headings read alike, the source gives them in different places.

The conditions of data set [1]: chronic administration for two weeks.
The conditions of data set [2]: human subjects, 16 week trial period.

As to `Cc1c(C(=O)NN2CCCCC2)nn(-c2ccc(Cl)cc2Cl)c1-c1ccc(I)cc1` [AM-251], the body weight result in data set [1] is reported as “substantial body weight reduction”.

In the case of `Cc1c(C(=O)NN2CCCCC2)nn(-c2ccc(Cl)cc2Cl)c1-c1ccc(Cl)cc1` [SR-141716], the body weight result in data set [2] is listed as “dose-dependently reduced body weight”.
